Experimental data published in patent US11969425B2, “Inhibitor of indoleamine-2,3-dioxygenase (IDO)” (InventisBio LLC, priority 2016, dated 2024).

Tested on: kynurenine production in HeLa cells
Experiment: Inhibition of kynurenine production in HeLa cells
Type: cell-based, human
Details: HeLa cells, human IFN-γ 50 ng/mL, 48 h, kynurenine read at 480 nm; read-out: IC50
Protocol: The effect of compounds described herein on the inhibition of kynurenine production in HeLa cells (derived from human cervical cancer) was determined. HeLa cells were seeded into a 96-well culture plate at a density of 5×10^3 per well in RPMI1640/phenol red free media (from GIBCO) with 2 mM L-glutamine and 10% fetal bovine serum (FBS, from GIBCO) and grown overnight in a 37° C. incubator with 5% CO2. Twenty-four hours later, human IFN-γ (from GIBCO) (final concentration 50 ng/mL) and test compound solutions (serially diluted to different wells) were added to each well with a final volume of 200 uL per well. Forty-eight hours after incubation with compounds, 140 uL supernatant was taken from each well and was transferred to a new 96-well plate. Ten microliters of 6.1 N trichloroacetic acid were added into each well, mixed and incubated at 50° C. for 30 minutes. The reaction mixture was then centrifuged for 10 minutes at 2500 rpm and 100 uL of the supernatant per well was transferred to another 96 well plate and mixed with 100 uL of 2% (w/v) p-dimethylaminobenzaldehyde in acetic acid. The yellow color derived from kynurenine was measured at 480 nm using a SPECTRAmax i3 reader. Each compound concentration was done in triplicates and compound IC50 value was calculated using nonlinear regression using Graphpad Prism 5.0.
The inhibitory activity of representative compounds described herein, compared with another IDO inhibitor, such as INCB-24360, Controls 1 and 2 are shown in Table 2.

| SMILES | IC50 |
| --- | --- |
| CCC(C(=O)O)c1ccc(N(CC(C)C)C2CCOCC2)c(Nc2ccc(Cl)cc2)c1 (stereo not shown) [Compound 68B] | 0.7 nM |

Same assay, conditions: Homo sapiens, HeLa, 48 h

| SMILES | IC50 |
| --- | --- |
| CCOc1ncc(Nc2cc(C3(C(=O)O)CCC3)cnc2N2C3CCC2CC(c2ccc(F)cc2)C3)cn1 (stereo not shown) [Compound 127] | 22 nM |

Same assay, conditions: Homo sapiens, HeLa, 48 h, HeLa cells, human IFN-γ 50 ng/mL, kynurenine read at 480 nm, read-out: IC50

| SMILES | IC50 |
| --- | --- |
| CC(C)CN(CC(C)C)c1ccc(C2(C(=O)O)CCCC2)cc1Nc1nc2ccccc2[nH]1 [Compound 47] | 5.6 nM |
| CC(C)CN(CC(C)C)c1ccc(C2(C(=O)O)CCCC2)cc1Nc1ncccn1 [Compound 49] | > 316 nM |
| CC(C)CN(c1ccc(C2(C(=O)O)CCC2)cc1NC(=O)C(C)C)C1CCOCC1 [Compound 50] | > 316 nM |
| CC(C)CN(CC(C)C)c1ccc(C2(C(=O)O)CCCC2)cc1Nc1ccc(Cl)cc1 [Compound 51] | 2.3 nM |
| CC(C)CN(c1ccc(C2(C(=O)O)CCC2)cc1Nc1ccc(Cl)cc1)C1CCCCC1 [Compound 52] | 0.3 nM |
| CCOc1ccc(Nc2cc(C3(C(=O)O)CCC3)ccc2N(CC(C)C)C2CCCCC2)cc1 [Compound 53] | 1 nM |
| CC(C)CN(c1ccc(C2(C(=O)O)CCC2)cc1Nc1cncnc1)C1CCCCC1 [Compound 54] | 0.6 nM |
| CCOc1ncc(Nc2cc(C3(C(=O)O)CCC3)ccc2N(CC(C)C)C2CCCCC2)cn1 [Compound 55] | 0.3 nM |
| CC(C)CN(c1ccc(C2(C(=O)O)CCC2)cc1Nc1ccc(C#N)cc1)C1CCCCC1 [Compound 56] | 0.2 nM |
| CC(C)CN(c1ccc(C2(C(=O)O)CCC2)cc1Nc1ccc(Cl)cc1)C1CCOCC1 [Compound 57] | 0.2 nM |
| CCC(C(=O)O)c1ccc(N(CC(C)C)CC(C)C)c(Nc2ccc(C#N)cc2)c1 (stereo not shown) [Compound 61A] | 0.3 nM |
| CCC(C(=O)O)c1ccc(N(CC(C)C)C2CCCCC2)c(NC(=O)Nc2cc(C)no2)c1 (stereo not shown) [Compound 63A] | 2.5 nM |
| CCC(C(=O)O)c1ccc(N(CC(C)C)C2CCOCC2)c(Nc2ccc(Cl)cc2)c1 (stereo not shown) [Compound 68A] | 0.4 nM |
| CCC(C(=O)O)c1ccc(N(CC(C)C)C2CCOCC2)c(Nc2ccc(F)cc2F)c1 (stereo not shown) [Compound 69] | 3.9 nM |
| CCC(C(=O)O)c1ccc(N(CC(C)C)C2CCOCC2)c(Nc2ccc(C#N)cc2)c1 (stereo not shown) [Compound 70A] | 0.4 nM |
| CC(C)CN(c1ccc(C2(C(=O)O)CCC2)cc1Nc1ccc(C#N)cc1)C1CCOCC1 [Compound 72] | 0.2 nM |
| CCOc1ccc(Nc2cc(C3(C(=O)O)CCC3)ccc2N(CC(C)C)C2CCOCC2)cc1 [Compound 73] | 0.4 nM |
| CC(C)CN(c1ccc(C2(C(=O)O)CCC2)cc1Nc1cncnc1)C1CCOCC1 [Compound 74] | 1.9 nM |
| Cc1csc(Nc2cc(C3(C(=O)O)CCC3)ccc2N(CC(C)C)C2CCOCC2)n1 [Compound 76] | 1.1 nM |
| CC(C)CN(c1ccc(C2(C(=O)O)CCC2)cc1Nc1ccc(S(C)(=O)=O)cc1)C1CCOCC1 [Compound 77] | 3 nM |
| CC(C)CN(c1ccc(C2(C(=O)O)CCC2)cc1NC1CCCC1)C1CCOCC1 [Compound 78] | 13.9 nM |
| CC(C)CN(c1ccc(C2(C(=O)O)CCC2)cc1NCC1CC1)C1CCOCC1 [Compound 80] | 29 nM |
| CC(C)CN(CC(C)C)c1ncc(C2(C(=O)O)CCC2)cc1NC(=O)Nc1ccc(F)cc1F [Compound 83] | 5.4 nM |
| Cc1cc(NC(=O)Nc2cc(C3(C(=O)O)CCC3)cnc2N(CC(C)C)CC(C)C)on1 [Compound 85] | 19 nM |
| CC(C)CN(c1ccc(C2(C(=O)O)CCC2)cc1Nc1cnn(C)c1)C1CCOCC1 [Compound 87] | 6.5 nM |
| CC(C)CN(c1ccc(C2(C(=O)O)CCC2)cc1Nc1ccc(Cl)cc1F)C1CCOCC1 [Compound 88] | 1.7 nM |
| CC(C)CN(c1ccc(C2(C(=O)O)CCC2)cc1Nc1ccc(F)cc1F)C1CCOCC1 [Compound 89] | 6.3 nM |

| SMILES | IC50 |
| --- | --- |
| CC(C)CN(c1ncc(C2(C(=O)O)CCC2)cc1NC(=O)Nc1ccc(F)cc1F)C1CCOCC1 [Compound 90] | 33 nM |
| CC(C)CN(c1ncc(C2(C(=O)O)CCC2)cc1Nc1ccc(Cl)cc1)C1CCOCC1 [Compound 92] | 0.2 nM |
| CC(C)CN(CC(C)C)c1ncc(C2(C(=O)O)CCC2)cc1Nc1ccc(C#N)cc1 [Compound 93] | 0.3 nM |
| CC(C)CN(c1ccc(C2(C(=O)O)CCC2)cc1Nc1ccc(C#N)cn1)C1CCCCC1 [Compound 94] | 0.2 nM |
| CC(C)N(CC1CC1)c1ccc(C2(C(=O)O)CCC2)cc1Nc1ccc(Cl)cc1 [Compound 95] | 0.4 nM |
| CC(C)CN(CC(C)C)c1ccc(C2(C(=O)O)CCC2)cc1Nc1ccc(Cl)cc1 [Compound 96] | 0.4 nM |
| CCOc1ncc(Nc2cc(C3(C(=O)O)CCC3)ccc2N(CC(C)C)CC(C)C)cn1 [Compound 97] | 2.4 nM |
| CCOc1ncc(Nc2cc(C3(C(=O)O)CCC3)ccc2N(CC2CC2)C(C)C)cn1 [Compound 98] | 2.8 nM |
| CC(C)CN(c1ccc(CC(=O)O)cc1Nc1ccc(C#N)cc1)C1CCCCC1 [Compound 99] | 3.9 nM |
| CC(C)CN(c1ccc(C2(C(=O)O)CCC2)cc1Nc1cccc(Cl)c1)C1CCOCC1 [Compound 100] | 3.5 nM |
| CC(C)CN(c1ccc(C2(C(=O)O)CCC2)cc1Nc1ccc(Cl)c(F)c1)C1CCOCC1 [Compound 101] | 0.2 nM |
| CC(C)CN(c1ccc(C2(C(=O)O)CCC2)cc1Nc1ccc(Cl)cn1)C1CCOCC1 [Compound 102] | 0.2 nM |
| CC(C)CN(c1ccc(C2(C(=O)O)CCC2)cc1Nc1cc(Cl)cc(Cl)c1)C1CCOCC1 [Compound 103] | 20 nM |
| CC(C)CN(c1ccc(CC(=O)O)cc1Nc1ccc(Cl)cc1)C1CCOCC1 [Compound 104] | 1.8 nM |
| CC(C)N(CC1CC1)c1ccc(C2(C(=O)O)CCC2)cc1Nc1ccc(C#N)cn1 [Compound 108] | 0.3 nM |
| CCOc1ncc(Nc2cc(CC(=O)O)ccc2N(CC(C)C)C2CCOCC2)cn1 [Compound 109] | > 316 nM |
| CC(C)N(CC1CC1)c1ccc(C2(C(=O)O)CCC2)cc1Nc1ccc(C#N)cc1 [Compound 112] | 0.2 nM |
| CC(C)N(CC1CC1)c1ccc(C2(C(=O)O)CCC2)cc1Nc1ccc(Cl)cn1 [Compound 113] | 0.4 nM |
| CCOc1ncc(Nc2cc(C(C)(C)C(=O)O)ccc2N(CC2CC2)C(C)C)cn1 [Compound 114] | 25 nM |
| CC(C)N(CC1CC1)c1ncc(C2(C(=O)O)CCC2)cc1Nc1ccc(C#N)cc1 [Compound 116] | 0.5 nM |
| CCOc1ncc(Nc2cc(C(C)(C)C(=O)O)ccc2N(CC(C)C)C2CCOCC2)cn1 [Compound 121] | 4.1 nM |
| CCOc1ncc(Nc2cc(C3(C(=O)O)CCC3)cnc2N(CC(C)C)C2CCOCC2)cn1 [Compound 122] | 2.3 nM |
| CCOc1ncc(Nc2cc(C3(C(=O)O)CCC3)cnc2N(CC)C2CCOCC2)cn1 [Compound 124] | 11.3 nM |
| CCOc1ncc(Nc2cc(C3(C(=O)O)CCC3)cnc2N2CCC(c3ccccc3)CC2)cn1 [Compound 126] | 7.5 nM |
| CC(C)C1COCCN1c1ncc(C2(C(=O)O)CCC2)cc1Nc1ccc(Cl)cc1 (stereo not shown) [Compound 128] | 9.3 nM |
| Cc1cc(NC(=O)Nc2cc([C@H]3C[C@H]3C(=O)O)ccc2N(CC(C)C)CC(C)C)on1 [Control 2, (1R,2S)-2-(4-(diisobutylamino)-3-(3-(3-methylisoxazol-5-yl)ureido)phenyl)cyclopropanecarboxylic acid, reference compound] | 3 nM |
